According to US20100298394A1, “ANTIFUNGAL AGENTS AS NEUROPROTECTANTS” (THE JOHNS HOPKINS UNIVERSITY, priority 2007, published 2010):

How the values were obtained:
[1] = system: rat mixed hippocampal cultures; assay: Titration of 3-NP toxicity, MTT endpoint; assay type: cell-based; settings: 3 mM 3-NP, 18 hours, compared to 0.1% DMSO vehicle control
Experimental: FIG. 1 presents an illustrative titration of 3-NP toxicity in rat mixed hippocampal cultures. Rat mixed hippocampal cultures, day 11-14 in vitro, were subjected to 18 hour exposure to 3-NP, followed by MTT treatment to quantitate cell viability.
(§1) Rat mixed hippocamal neuronal cultures are generated from freshly dissected rat hippocampi (embryonic day 18) in neurobasal media containing 5% fetal bovine serum and 2% B27 supplement. The cells are plated into 96 well plates at a density of 4×10^5 cells/mL and routinely used on days 11-14 following culturing. Cell viability is assessed with MTT [3-(4,5-dimethylthiazol-2-yl)-2,5-diphenyltetrazolium bromide] assay. The MTT assay is based on the ability of a mitochondrial dehydrogenase enzyme from viable cells to cleave the tetrazolium rings of the pale yellow MTT and form dark blue formazan crystals. See Mosmann (1983), J Immunol Methods, 65(1-2):55-63. These crystals are largely impermeable to cell membranes, and thus accumulate within healthy cells. The resultant formazan precipitates are solubilized with DMSO and read on a multiwell scanning spectrophotometer (ELISA reader). The number of surviving cells is directly proportional to the level of the formazan product created.
(§2) Mixed hippocampal cultures are incubated with 3-NP (0.5-10 mM) for 18 hours in a 0.1% DMSO vehicle and then assessed for viability using an MTT assay.

[2] = system: rat mixed hippocampal cultures; assay: 3-NP neurotoxicity (neuroprotection) assay, MTT endpoint; assay type: cell-based; settings: for % Protection vs. 3-NP / Protection vs 3NP: 10 μM agent, 60 minutes incubation, 3 mM 3-NP, compared to 0.1% DMSO vehicle control; for protection from oxidative damage elicited by 3-NP (FIG. 4): increasing concentrations, 1 h prior to 3 mM 3-NP for 18 h; for protection from oxidative damage elicited by 3-NP (positive controls, FIG. 2): 10 μM, 1 hour pretreatment, 3 mM 3-NP for 18 hours
Experimental: For example, a cell viability assay can be utilized to detect and/or measure the ability of a compound disclosed herein to protect neuronal and/or glial cells. In some embodiments, mixed hippocampal cell cultures are prepared as described in, e.g., Haughey et al. (1999), J Neurochem, 73(4):1363-1374, and Haughey et al (2004), J Neurosci, 24(1):257-268. Subsequently, the cultures are pretreated for one hour in the presence of a candidate neuroprotective agent and then incubated with a cytotoxic agent for about 18 hours. Examples of cytotoxic agents include, but are not limited to, oxidative stressors (e.g., 3-nitropropionic acid (3-NP) or H2O2),.excitatory amino acids (e.g., kainate), or neurotoxic proteins (e.g., Hiv Tat, or Aβ peptides). […] The level of protection (“percent protection”) provided by the test compound at a given test concentration in vitro can be expressed as: […]
(§3) We evaluate the protective efficacy of a number of antifungal agents against many different neurotoxins, ranging from the chemotoxic 6-OHDA, NMDA, 3-nitropropionic acid (3-NP), and viral proteins such as Tat and gp120. Thus, we provide an in vitro neuroprotection assay using rat mixed hippocampal cultures, in which we evaluate the protective efficacy of neuroprotective compounds described herein. The oxidative stressor 3-NP is used to elicit toxicity in the rat hippocampal cultures to mimic the oxidative damage, reactive oxygen species production and ensuing neurodegeneration resulting from HIV infection. Another measure of neurotoxicity which results from HIV infection is evaluated by exposure of the hippocampal cultures to HIV-1 Tat (Li et al (2005), Neurotox Res, 8(1-2):119-134).
as §1, §2
Neuroprotection vs 3NP is measured as a percentage of neural and/or glial cell that are protected from 3NP induced cell death after incubation with the neuroprotective agent (10 μM) for 60 minutes when compared to a 0.1% DMSO vehicle control.
The neural and glial cells were preincubated with the neuroprotective compound for 1 hour followed by exposure to3 mM of the toxin for 18 hours.

[3] = system: rat mixed hippocampal cultures; assay: HIV-1 Tat neurotoxicity assay, MTT endpoint; assay type: cell-based; settings: for protection of hippocampal cultures from HIV-Tat toxicity (FIG. 5): increasing concentrations, 1 hour preincubation, 500 nM Tat1-72 for 18 hours; for protection from HIV-1 Tat toxicity (positive controls, FIG. 3): 10 μM, 1 hour pretreatment, 500 nM Tat for 18 hours
Description: as §3, §1
The assay system is validated using two neuroprotective agents, GPI 1046 and Resveratrol. […] Cultures are preincubated with GPI 1046 or Resveratrol for one hour prior to an 18 hour exposure to 3 mM 3-NP. […] The same neuroprotective compounds are evaluated for efficacy against HIV-1 Tat protein toxicity using the same 1 hour preincubation protocol.
The neural and glial cells were preincubated with the neuroprotective compound for 1 hour followed by exposure to 500 nM of Tat1-72 for 18 hours.

[4] = system: Mixed hippocampal cultures; assay: NMDA excitotoxicity assay, MTT endpoint; assay type: cell-based, rat; settings: increasing concentrations, 1 h prior to 500 μM NMDA for 18 h
Experimental: (§4) Mixed hippocampal cultures were treated with increasing concentrations of fluconazole (panel A) or voriconazole (panel B), for 1 h prior to exposure to 500 μM N-methyl D-aspartate (NMDA) for 18 h. Cell survival was measured following NMDA by MTT assay. Statistical significance was determined by ANOVA with Newman-Keuls pairwise post hoc comparisons. Statistical significance * indicates p<0.05, ** indicates p<0.01; *** indicates p<0.001.
as §1, with “The number of surviving cells is directly proportional to the level of the formazan product created.” left out

[5] = system: Mixed hippocampal cultures; assay: 6-OHDA neurotoxicity assay, MTT endpoint; assay type: cell-based, rat; settings: increasing concentrations, 1 h prior to 100 μM 6-OHDA for 18 h
Experimental: as §4, with “100” for “500”, “6-hydroxydopamine (6-OHDA)” for “N-methyl D-aspartate (NMDA)”, “6-OHDA” for “NMDA”, “p<0.00” for “p<0.001.”
as §1, with “The number of surviving cells is directly proportional to the level of the formazan product created.” left out

[6] = system: Mixed hippocampal cultures; assay: ADP ribose toxicity assay, MTT endpoint; assay type: cell-based, rat; settings: increasing concentrations, 24 h prior to 1 mM ADP ribose for 18 h
Experimental: as §4, with “B), for 24 h prior” for “B), for 1 h prior”, “exposure to 1 mM ADP ribose for 18” for “exposure to 500 μM N-methyl D-aspartate (NMDA) for 18”, “measured following ADP ribose by MTT” for “measured following NMDA by MTT”
as §1, with “The number of surviving cells is directly proportional to the level of the formazan product created.” left out

[7] = system: Human cortical neuronal cultures; assay: 3-NP toxicity assay in human neurons, MTT endpoint; assay type: cell-based; settings: increasing concentrations, 1 h prior to 3 mM 3-NP for 18 h
Experimental: (§5) Human cortical neuronal cultures were treated with increasing concentrations of fluconazole for 1 h prior to exposure to 3 mM 3-NP (panel A) or 100 μM 6-OHDA (panel B) for 18 h. Cell survival was measured by MTT assay. Statistical significance was determined by ANOVA with Newman-Keuls pairwise post hoc comparisons. Statistical significance * indicates p<0.05, ** indicates p<0.01; *** indicates p<0.001.
(§6) FIG. 9 illustrates the protection of human neuronal cultures from 3-NP and 6-OHDA with fluconazole (FIGS. 9A-9B, respectively). The neural and glial cells were preincubated with the neuroprotective compound for 1 hour followed by exposure to 3 mM 3-NP or 100 μM 6-OHDA for 18 hours.

[8] = system: Human cortical neuronal cultures; assay: 6-OHDA toxicity assay in human neurons, MTT endpoint; assay type: cell-based; settings: increasing concentrations, 1 h prior to 100 μM 6-OHDA for 18 h
Experimental: as §5, §6

Row | SMILES | % Protection vs. 3-NP [2] [%] | Protection vs 3NP [2] [%] | protection from oxidative damage elicited by 3-NP (FIG. 4) [2] | protection of hippocampal cultures from HIV-Tat toxicity (FIG. 5) [3] | further results
1 | O=C(O)CC[N+](=O)[O-] [3-NP, 3-nitropropionic acid] |  |  |  |  | cytotoxicity [1]: 25-35%
2 | Clc1ccccc1C(c1ccccc1)(c1ccccc1)n1ccnc1 [CLOTRIMAZOLE, Clotrimazole] | 12.6 | 12.57 | protect hippocampal neurons from oxidative damage elicited by 3-NP | concentration dependent protection | 
3 | Clc1ccc(COC(Cn2ccnc2)c2ccc(Cl)cc2Cl)cc1 (stereo not shown) [ECONAZOLE NITRATE, Econazole Nitrate] | 141.2 | 141.18 |  |  | 
4 | CCCCCCOc1ccccc1C(N)=O [EXALAMIDE] |  | 9.19 |  |  | 
5 | OC(Cn1cncn1)(Cn1cncn1)c1ccc(F)cc1F [FLUCONAZOLE, Fluconazole] | 13.3 | 13.35 | protect hippocampal neurons from oxidative damage elicited by 3-NP | concentration dependent protection | protection from excitotoxic lesions elicited by NMDA (FIG. 6) [4]: protect hippocampal neurons from excitotoxic lesions elicited by NMDA; protection from 6-OHDA neurotoxicity (FIG. 7) [5]: protect hippocampal neurons from 6-OHDA neurotoxicity; protection from toxicity elicited by ADP ribose (FIG. 8) [6]: protect hippocampal neurons from toxicity elicited by ADP ribose; protection of human cortical neurons from 3-NP toxicity (FIG. 9A) [7]: protects human cortical neurons; protection of human cortical neurons from 6-OHDA toxicity (FIG. 9B) [8]: protects human cortical neurons
6 | Fc1ccc(C(c2ccccc2)(c2ccccc2F)n2ccnc2)cc1 (stereo not shown) [FLUTRIMAZOLE] |  | 46.85 |  |  | 
7 | CCC(C)(C)C(=O)C(=O)N1CCC[C@H]1C(=O)OCCCc1cccnc1 [GPI 1046] |  |  |  |  | protection from oxidative damage elicited by 3-NP (positive controls, FIG. 2) [2]: significantly protected rat neurons from oxidative damage; protection from HIV-1 Tat toxicity (positive controls, FIG. 3) [3]: protected hippocampal neurons from Tat toxicity
8 | CC(=O)N1CCN(c2ccc(OCC3COC(Cn4ccnc4)(c4ccc(Cl)cc4Cl)O3)cc2)CC1 (stereo not shown) [KETOCONAZOLE] |  | 20.93 |  |  | 
9 | Clc1ccc(COC(Cn2ccnc2)c2ccc(Cl)cc2Cl)c(Cl)c1 (stereo not shown) [MICONAZOLE NITRATE, Miconazole Nitrate] | 81.6 | 81.61 |  |  | 
10 | C[C@@H]1[C@H](O)[C@@H](C)/C=C/C=C/CC/C=C/C=C/C=C/C=C/C(O[C@H]2O[C@H](C)[C@@H](O)[C@H](N)[C@@H]2O)CC2O[C@](O)(CC(O)C(O)CCC(O)CC(O)CC(O)CC(=O)O[C@H]1C)CC(O)C2C(=O)O (stereo partly shown) [NYSTATIN] |  | 46.72 |  |  | 
11 | COc1ccc(/C=C/c2cc(O)cc(O[C@@H]3O[C@H](CO)[C@@H](O)[C@H](O)[C@H]3O)c2)cc1O [RHAPONTIN] |  | 22.12 |  |  | 
12 | Oc1ccc(C=Cc2cc(O)cc(O)c2)cc1 [Resveratrol] |  |  |  |  | protection from oxidative damage elicited by 3-NP (positive controls, FIG. 2) [2]: significantly protected rat neurons from oxidative damage; protection from HIV-1 Tat toxicity (positive controls, FIG. 3) [3]: protected hippocampal neurons from Tat toxicity
13 | Clc1ccc(CSC(Cn2ccnc2)c2ccc(Cl)cc2Cl)cc1 (stereo not shown) [SULCONAZOLE NITRATE, Sulconazole Nitrate] | 18.21 | 18.21 |  |  | 
14 | Cc1cccc(N(C)C(=S)Oc2ccc3ccccc3c2)c1 [TOLNAFTATE, Tolnaftate] | 66.8 | 66.83 | protect hippocampal neurons from oxidative damage elicited by 3-NP | concentration dependent protection | 
15 | CC(=O)OCC(COC(C)=O)OC(C)=O [TRIACETIN] |  | 45.14 |  |  | 
16 | Clc1ccc(COC(Cn2ccnc2)c2ccc(Cl)cc2Cl)cc1 (stereo not shown) [econazole] |  |  | protect hippocampal neurons from oxidative damage elicited by 3-NP | concentration dependent protection | 
17 | Clc1ccc(COC(Cn2ccnc2)c2ccc(Cl)cc2Cl)c(Cl)c1 (stereo not shown) [miconazole] |  |  | protect hippocampal neurons from oxidative damage elicited by 3-NP | concentration dependent protection | 
18 | C[C@@H](c1ncncc1F)[C@](O)(Cn1cncn1)c1ccc(F)cc1F [voriconazole] |  |  | protect hippocampal neurons from oxidative damage elicited by 3-NP | concentration dependent protection | protection from excitotoxic lesions elicited by NMDA (FIG. 6) [4]: protect hippocampal neurons from excitotoxic lesions elicited by NMDA; protection from 6-OHDA neurotoxicity (FIG. 7) [5]: protect hippocampal neurons from 6-OHDA neurotoxicity; protection from toxicity elicited by ADP ribose (FIG. 8) [6]: protect hippocampal neurons from toxicity elicited by ADP ribose
